In one test the test system is A549 cells. Put plainly: Cell growth by direct cell counting. It is filed as cell-based. Particulars: Homo sapiens, A549, 144 h, cells grown 6 days with FTS, read-out: FTS concentration giving a decrease of 50% in A549 cell growth. As to the method:
FTS was provided by Concordia Pharmaceuticals, Inc. (Ft. Lauderdale, Fla.). All cell lines were obtained from American Type Culture Collection (“ATCC”) (Manassas, Va.). A549 cells, non-small-cell lung carcinoma (CCL, ATCC) cells, were cultured in Kaighn's modification of Ham's F-12 medium containing 1.5 g/l sodium bicarbonate, 10% fetal calf serum (FCS), 100 U/ml penicillin, and 100 μg/ml streptomycin. HTB54 lung carcinoma cells were cultured in McCoy's 5A medium with 10% FCS, 100 U/ml penicillin, and 10 μg/ml streptomycin. […] Cells were treated with the indicated concentrations of FTS (Concordia Pharmaceuticals, Sunrise Fla.) or with 0.1% Me2SO4 (DMSO) (vehicle) 24 h after plating and were counted 5 days later. Dead cells were counted after addition of Hoechst 33258 dye (Sigma-Aldrich, St. Louis, Mo.); 1 μg/ml) to vehicle-treated control cultures or to cultures treated for 24 or 48 h with 75 μM FTS. Fluorescence images were collected 5 min after the dye was added.
To investigate the effect of FTS on lung cancer cell proliferation, we first incubated A549 cells that harbor the activated K-ras gene mutated at codon 12. […] The number of cells in the FTS-treated cultures was determined by direct counting of A549 cells grown for 6 days in the presence of FTS and was expressed as a percentage of the number recorded in the controls. […]

A further test relates to HTB-58 cells. Description: HTB-58-cell-implanted nude mouse model, tumor growth. It is filed as in vivo, nude mice. Particulars: 10 mg/kg FTS i.p. daily. As to the method:
Nude mice (6 weeks old) were housed in barrier facilities on a 12-h light/dark cycle. Food and water were supplied ad libitum. On day zero, A549 or HTB-58 cells (5×10^6 cells in 0.1 ml PBS) were implanted subcutaneously (s.c.) just above the right femoral joint. After 5 or 11 days the mice were separated randomly into control groups that had received only the vehicle and FTS-treated groups. Daily FTS treatments were administered either intraperitoneally (i.p.) or orally. Tumor volumes or weights were determined as described in Barkan, B., Starinsky, S., Friedman, E., Stein, R., Kloog, Y., Clin Cancer Res 12:5533-42 (2006). Gemcitabine treatment (36 mg/kg, i.p.) was administered every 4 days.
Tumor volume measured 14 days after cell implantation in that group was 0.02±0.045 cm^3 compared to 0.09±0.08 cm^3 in the vehicle-treated controls (P<0.05).

The results in this text go back to patent US8232253B2, “Treatment of lung cancer” (Ramot at Tel-Aviv University Ltd., priority 2006, dated 2012).

In the case of `CC(C)=CCC/C(C)=C/CC/C(C)=C/CSc1ccccc1C(=O)O` [FTS, S-farnesylthiosalicylic acid], in the test on A549 cells, the IC50 amounted to 40 µM. Further, in the test on HTB-58 cells, the “inhibition of tumor growth” value is given as 76.4±48.8%. Moreover, the tumor volume in the test with HTB-58 cells (14 days after cell implantation) was 0.02±0.045 cm^3.
